The source of these data is PubChem BioAssay AID1996.

Values after ≈ are worked out from the molar mass of the structure shown.

For the data set the following is noted: buffer; pH 7.4; 200.0 µM.
Consider `Cc1ccnc(NC(=O)c2cccc3ccccc23)c1`, for which the solubility (kinetic) was 6.1 µg/mL (≈ 23.3 µM).

Compound `CC(=O)c1cccc(NC(=O)N2CCC(NC(=O)c3ccco3)CC2)c1` registered a kinetic solubility of 51.6 µg/mL (≈ 145 µM).

The compound `COc1ccccc1N1CCN(Cc2nc3ccccc3[nH]2)CC1` came in with a kinetic solubility of 47.9 µg/mL (≈ 149 µM).

`Cc1ccc(SCC(=O)NCc2ccccc2)cc1` had a kinetic solubility of over 40.7 µg/mL.

Consider `CCOCCOC(=O)c1[nH]c2c(c1C)C(=O)CC(c1ccccc1)C2` (configuration not stated), for which the kinetic solubility worked out at 2.3 µg/mL (≈ 6.74 µM).

Regarding `Cc1ccc(NCc2ccc([N+](=O)[O-])s2)cc1`, the solubility (kinetic) was found to be 13.7 µg/mL (≈ 55.2 µM).

Consider `COc1ccc(/C=C/C(=O)Nc2cc(S(=O)(=O)N3CCOCC3)ccc2OC)cc1`, for which the solubility (kinetic) was 8 µg/mL (≈ 18.5 µM).

`Cc1ccc(NC(=O)CN(C)C(=O)CSc2nccn2C)cc1` registered a solubility (kinetic) of over 49.9 µg/mL.

On to `COC(=O)c1sccc1NC(=O)C1CCCCC1C(=O)O` (configuration not stated), for which the solubility (kinetic) turned out to be 42.1 µg/mL (≈ 135 µM).

As to `CCOC(=O)C1(Cc2cccc(F)c2)CCN(C(=O)C2CCC2)CC1`, the kinetic solubility was over 52.1 µg/mL.

`CCc1nc2oc3ccc(C)cc3c(=O)c2cc1C(=O)OC` showed a kinetic solubility of under 0.6 µg/mL.

In the case of `Cc1cc(CNC(=O)COc2ccc([N+](=O)[O-])cc2)c2ccccc2n1`, the kinetic solubility was determined as 2.3 µg/mL (≈ 6.55 µM).

In turn, `CC(NC(=O)COC(=O)c1cc(Cl)nc(Cl)c1)c1ccccc1` (configuration not stated) yielded a solubility (kinetic) of over 53 µg/mL.

The compound `CCOc1ccc(CNc2ccc(N3CCN(Cc4ccccc4)CC3)cc2)cc1` yielded a kinetic solubility of 0.9 µg/mL (≈ 2.24 µM).

As to `Cc1ccnc(NC(=O)COc2ccc3c(c2)CCC3)c1`, the kinetic solubility stood at 1.6 µg/mL (≈ 5.67 µM).

In turn, `O=C(CSCc1ccc(F)cc1)NCc1cccs1` displayed a solubility (kinetic) of 40.2 µg/mL (≈ 136 µM).

The compound `FC(F)(F)c1ccccc1CNCc1ccc2c(c1)OCO2` showed a solubility (kinetic) of 25.8 µg/mL (≈ 83.4 µM). Compared with the last compound, the solubility kinetic is about 1.6-fold lower.

Compound `O=C(NCc1ccc(F)cc1)c1cnccn1` registered a kinetic solubility of over 34.7 µg/mL.

Turning to `COc1ccccc1-n1cccc1C=O`, the kinetic solubility was over 30.2 µg/mL.

`CCOc1ccc2oc(C(=O)Nc3ccc4c(c3)OCO4)c(C)c2c1` had a solubility (kinetic) of 5.7 µg/mL (≈ 16.8 µM).

As for `CCOc1ccc(NC(=S)NCc2cccnc2)cc1`, the solubility (kinetic) was over 43.1 µg/mL.

Regarding `Cc1cc(C)c(C(=O)NCCCN2CCOCC2)c(C)c1`, the solubility (kinetic) was over 43.6 µg/mL.

`O=S(=O)(NCCN1CCCC1)c1ccc(Br)cc1` registered a solubility (kinetic) of 46.9 µg/mL (≈ 141 µM).

`Cc1ccc(CNC(=O)C2CCC(=O)N2Cc2ccc(F)cc2)cc1` (configuration not stated) returned a kinetic solubility of 50.2 µg/mL (≈ 147 µM).

In the case of `O=C(CCCN1C(=O)/C(=C/c2ccccc2OC(F)F)SC1=S)Nc1cccnc1`, the kinetic solubility was determined as 4.5 µg/mL (≈ 10 µM).

Compound `COc1cccc(S(=O)(=O)N2CCN(C(=O)c3ccco3)CC2)c1` registered a solubility (kinetic) of 51.3 µg/mL (≈ 146 µM).

Turning to `N=C1/C(=C/c2cccn2Cc2ccc(F)cc2)C(=O)N=C2SC=CN12`, the kinetic solubility is under 0.2 µg/mL.

In turn, `COc1cccc2cc(C(=O)NCCN3CCOCC3)c(=O)oc12` showed a kinetic solubility of over 49.9 µg/mL.

`Cc1c(NC(=O)COC(=O)C2=COCCO2)cccc1[N+](=O)[O-]` displayed a solubility (kinetic) of over 48.3 µg/mL.

In turn, `CC(=O)N1CCN(C(=O)c2ccco2)CC1` displayed a solubility (kinetic) of over 33.3 µg/mL.

`Cn1c(O)c(C=NCCCCCCCCCCC(=O)O)c(=O)n(C)c1=O` gave a kinetic solubility of over 55.1 µg/mL.

Compound `NC(=O)c1ccc(OCC(F)(F)F)nc1` gave a solubility (kinetic) of 31.1 µg/mL (≈ 141 µM).

The compound `Cc1cccc(NC(=O)CNC(=O)c2ccc3nc[nH]c3c2)c1C` showed a solubility (kinetic) of over 48.4 µg/mL.

The compound `Cc1ccc(CNC(=O)CN2CCN(c3ccc(F)cc3)CC2)cc1` gave a solubility (kinetic) of over 51.2 µg/mL.

As to `O=C(Nc1cccc(Cl)c1)N1CCCCCC1`, the solubility (kinetic) worked out at 5.1 µg/mL (≈ 20.2 µM).

The compound `Cc1ccc(/C=C2/C(=O)NC(=O)N(Cc3ccc(F)cc3)C2=O)o1` showed a kinetic solubility of 11.4 µg/mL (≈ 34.7 µM).

Regarding `COc1ccccc1CNC(=O)C(c1ccccc1)c1ccccc1`, the kinetic solubility was under 0.7 µg/mL.

Turning to `O=C1CSC(=Nc2cccc(Cl)c2Cl)N1`, the solubility (kinetic) came out at 37.4 µg/mL (≈ 143 µM).

For the compound `NC(=O)COc1cc2oc(=O)c3c(c2cc1Cl)CCCC3`, the solubility (kinetic) was found to be 7.1 µg/mL (≈ 23.1 µM). Compared with the last compound, the solubility kinetic is about 5.3-fold lower.

Compound `S=C(Nc1ccccn1)Nc1ccccc1Cl` displayed a solubility (kinetic) of 2.1 µg/mL (≈ 7.96 µM).

Turning to `O=C(Nc1ccc(S(=O)(=O)N2CCCCC2)cc1)c1ccco1`, the kinetic solubility came out at 46.2 µg/mL (≈ 138 µM).

Compound `C#CCn1cnc2c(oc3ccccc32)c1=O` registered a solubility (kinetic) of over 33.6 µg/mL.

Regarding `CC(=O)Nc1ccc(NC(=O)Cn2ccc([N+](=O)[O-])n2)cc1`, the solubility (kinetic) was over 45.5 µg/mL.

In turn, `N=c1oc2ccccc2cc1C(=O)Nc1cccc(F)c1` had a kinetic solubility of 0.3 µg/mL (≈ 1.06 µM).

For the compound `O=C(Nc1cc(Cl)cc(Cl)c1)Nc1cnccn1`, the solubility (kinetic) was 0.2 µg/mL (≈ 0.706 µM).

On to `COc1ccc(C(=O)Nc2ccccc2C(=O)NCc2ccco2)cc1`, for which the kinetic solubility came out at 2.1 µg/mL (≈ 5.99 µM).

For `O=C(COc1ccc2c(c1)OCO2)Nc1ccc(Cl)cn1`, the solubility (kinetic) came to 1.3 µg/mL (≈ 4.24 µM). This solubility kinetic lies about 1.6-fold lower than the previous one.

`N#Cc1c(Cl)cccc1N1CCC(C(N)=O)CC1`: the solubility (kinetic) is over 39.6 µg/mL.

Take `O=C(CCS(=O)(=O)c1ccccc1)N1CCCc2ccccc21`: the kinetic solubility worked out at 49.2 µg/mL (≈ 149 µM).

`O=C(CN1CCN(Cc2ccc(F)cc2)CC1)NCc1ccccc1` displayed a solubility (kinetic) of over 51.2 µg/mL.

Consider `COc1ccc(C(=O)O)cc1S(=O)(=O)NC(C)C`, for which the kinetic solubility is over 41 µg/mL.

As to `CC(C)Cc1ccc(C(C)C(=O)Nc2ncccn2)cc1` (configuration not stated), the kinetic solubility was found to be 35.9 µg/mL (≈ 127 µM).
